Measured values published in article PMC11729425 (ACS Pharmacology & Translational Science, 2024).

Experiments:
Aged C57BL/6J mice [1] = experiment: Hanging test; type: in vivo, C57BL/6JRj mice; settings: 1 mg/kg in the food, week 7, normalized to BW
Method: Mice were allowed to acclimate to the testing room for 30 min before the experiment. Each mouse was positioned on a wire grid, gripping it with all four limbs. The grid was then inverted, causing the mouse to hang, and the duration it could maintain this position was recorded. The maximum trial length was set at 2 min and 30 s (150 s). The latency to fall was measured five times for each mouse, with 10 min intervals between trials.

Aged C57BL/6J mice [2] = experiment: Rotarod test; type: in vivo, C57BL/6JRj mice; settings: 1 mg/kg in the food, week 9
Method: The rotarod test assesses muscle strength, coordination, and endurance.[32] Mice were allowed to acclimate in the room for 30 min. […] Each mouse underwent three trials per day for three consecutive days. The latency at which the mouse either reached passive rotation or fell from the rotor was recorded. The results presented here focus on the latency of the best trial conducted on the second day.

COc1cc(C(=O)N2CC[C@H](NC(=O)c3ccccc3OC(F)(F)F)c3c2cnn3C(C)C)cnc1OC [ALT-007]
maximum hanging time (Aged C57BL/6J mice [1]): increased compared to aged control mice
coordination measured by the rotarod test (Aged C57BL/6J mice [2]): improved
